Measured values published in patent US12180226B2, “Spirotricycle RIPK1 inhibitors and methods of uses thereof” (Merck Sharp & Dohme LLC, priority 2021, dated 2024).

Target: RIPK1 (recombinant GST-RIPK1 kinase domain, residues 1-327) (Homo sapiens (Human), UniProt Q13546)
Test: RIPK1-ADP-Glo Enzymatic Assay
Assay type: biochemical
Conditions: ADP-Glo; 25 nM GST-RIPK1, 300 μM ATP; assay lower limit ~25 nM; read-out: RIPK1 V0 Ec50
Method: RIPK1-ADP-Glo Enzymatic Assay
The enzymatic activity of RIPK1 is measured using an assay derived from ADP-Glo kit (TMPromega), which provides a luminescent-based ADP detection system. Specifically, the ADP generated by RIPK1 kinase is proportionally detected as luminescent signals in a homogenous fashion. In this context, the assessment of the inhibitory effect of small molecules (EC50) is measured by the effectiveness of the compounds to inhibit the ATP to ADP conversion by RIPK1.
In this assay, the potency (EC50) of each compound was determined from a ten-point (1:3 serial dilution; top compound concentration of 100000 nM) titration curve using the following outlined procedure. The assay bottom or lower limit of confidence is ˜25 nM. To each well of a white ProxiPlus 384 well-plate, 30 nL of compound (1% DMSO in final assay volume of 3 μL) was dispensed, followed by the addition of 2 μL of 1×assay buffer (25 mM Hepes 7.3, 20 mM MgCl2, 50 mM NaCl, 1 mM DTT, 0.005% Tween20, and 0.02% BSA) containing 37.5 nM of GST-RIPK1 (recombinant GST-RIPK1 kinase domain (residues 1-327) enzyme produced from baculovirus-transfected Sf21 cells: MW=62 kDa). Plates were placed in an ambient temperature humidified chamber for a 30-minute pre-incubation with compound. Subsequently, each reaction was initiated by the addition of 1 μL 1×assay buffer containing 900 μM ATP and […] dephosphorylated-MBP substrate. The final reaction in each well of 3 μL consists of 25 nM of GST-RIPK1, 300 μM ATP, and 3 μM dephosphorylated-MBP. Kinase reactions were allowed to proceed for 150 minutes prior to adding ADP-Glo reagents per Promega's outlined kit protocol. Dose-response curves were generated by plotting percent effect (% product conversion; Y-axis) vs. Log10 compound concentrations (X-axis). EC50 values were calculated using a non-linear regression, four-parameters sigmoidal dose-response model.

Sequence of RIPK1 (recombinant GST-RIPK1 kinase domain, residues 1-327) (Q13546 1-327): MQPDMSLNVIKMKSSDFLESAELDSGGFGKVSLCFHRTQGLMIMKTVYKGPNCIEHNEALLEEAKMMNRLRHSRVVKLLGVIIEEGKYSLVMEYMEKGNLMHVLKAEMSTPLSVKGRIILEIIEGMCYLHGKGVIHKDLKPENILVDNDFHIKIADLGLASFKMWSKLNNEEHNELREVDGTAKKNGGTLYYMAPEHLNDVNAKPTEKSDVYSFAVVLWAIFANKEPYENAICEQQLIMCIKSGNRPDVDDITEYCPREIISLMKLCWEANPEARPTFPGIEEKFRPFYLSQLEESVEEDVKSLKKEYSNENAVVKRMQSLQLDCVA

Row | EC50 [nM] | Structure (SMILES)
1 | < 25 | Cc1ccc(C(=O)N2CCC3(CC2)O[C@@H]2CC[C@@H](c4ccccc4)N2C3=O)c(F)c1 [Example 6.152, (5′S,7a′R)-1-(2-fluoro-4-methylbenzene-1-carbonyl)-5′-phenyl-tetrahydro-3′H-spiro [piperidine-4,2′-pyrrolo[2,1-b][1,3]oxazol]-3′-one]
2 | 50 | CC1CN(c2cc(C#N)ncn2)CCC12O[C@@H]1CC[C@@H](c3ccccc3)N1C2=O (stereo partly drawn) [Example 4.236, 6-[(4R,5′S,7a′R)-3-methyl-3′-oxo-5′-phenyltetrahydro-1H,3′H-spiro[piperidine-4,2′-pyrrolo[2,1-b] [1,3]oxazol]-1-yl]pyrimidine-4-carbonitrile]
3 | 245 | Cc1nccc(C(=O)N2CCC3(CC2)O[C@@H]2CC[C@@H](c4cc(F)cc(F)c4)N2C3=O)n1 [Example 6.95]
4 | < 25 | N#Cc1cnn2c(N3CCC4(CC3)O[C@@H]3CC[C@@H](c5ccccc5)N3C4=O)ncnc12 [Example 4.218, 4-[(5′S,7a′R)-3′-oxo-5′-phenyltetrahydro-1H,3′H-spiro[piperidine-4,2′-pyrrolo[2,1-b] [1,3]oxazol]-1-yl]pyrazolo[1,5-a] [1,3,5]triazine-8-carbonitrile]
5 | 989 | CC(C)c1oncc1C(=O)N1CCC2(CC1)O[C@@H]1CC[C@@H](c3cc(F)cc(F)c3)N1C2=O [Example 6.49, (5′S,7a′R)-5′-(3,5-difluorophenyl)-1-[5-(propan-2-yl)-1,2-oxazole-4-carbonyl]-tetrahydro-3′H-spiro [piperidine-4,2′-pyrrolo[2,1-b][1,3]-oxazol]-3′-one]
6 | 40.3 | O=C1N2[C@@H](CC[C@H]2c2ccccc2)OC12CCN(c1ncc(-c3cscn3)cn1)CC2 [Example 21.13, (5′S,7a′R)-5′-phenyl-1-[5-(1,3-thiazol-4-yl)pyrimidin-2-yl]tetrahydro-3′H-spiro[piperidine-4,2′-pyrrolo[2,1-b][1,3]oxazol]-3′-one]
7 | < 25 | O=C1N2[C@H](CC13CCN(c1ccnc4c(F)cnn14)CC3)OC[C@H]2c1ccccc1 [Example 4.120, (3′R,7a′S)-1-(3-fluoropyrazolo[1,5-a]pyrimidin-7-yl)-3′-phenyltetrahydro-5′H-spiro[piperidine-4,6′-pyrrolo[2,1-b] [1,3]oxazol]-5′-one]
8 | 46.9 | Cc1ncc([C@@H]2CC[C@H]3OC4(CCN(c5ccc(C#N)c(C)n5)CC4)C(=O)N32)cc1F [Example 4.46, 6-[(5′S,7a′R)-5′-(5-fluoro-6-methylpyridin-3-yl)-3′-oxotetrahydro-1H,3′H-spiro[piperidine-4,2′-pyrrolo[2,1-b] [1,3]oxazol]-1-yl]-2-methylpyridine-3-carbonitrile]
9 | 436 | O=C(c1cncnc1)N1CCC2(CC1)O[C@@H]1CC[C@@H](c3cc(F)cc(F)c3)N1C2=O [Example 6.40, (5′S,7a′R)-5′-(3,5-difluorophenyl)-1-(pyrimidine-5-car-bonyl)tetrahydro-3′H-spiro[piperidine-4,2′-pyrrolo[2,1-b][1,3]oxazol]-3′-one]
10 | < 25 | O=C(c1cc(F)ccc1F)N1CCC2(CC1)O[C@@H]1CC[C@@H](c3ccccc3F)N1C2=O [Example 1.12, (5′S,7a′R)-1-(2,5-difluorobenzoyl)-5′-(2-fluorophenyl)tetrahydro-3′H-spiro[piperidine-4,2′-pyrrolo[2,1-b]oxazol]-3′-one]
11 | 33.7 | O=C1N2[C@@H](CC[C@H]2c2ccccc2)OC12CCN(c1ccnc(-c3ccccc3)n1)CC2 [Example 11.14, (5′S,7a′R)-5′-phenyl-1-(2-phenylpyrimidin-4-yl)tetrahydro-3′H-spiro[piperidine-4,2′-pyrrolo[2,1-b][1,3]oxazol]-3′-one]
12 | < 25 | CCOc1cccc(C(=O)N2CCC3(CC2)O[C@@H]2CC[C@@H](c4ccccc4)N2C3=O)c1 [Example 6.139, (5′S,7a′R)-1-(3-ethoxybenzene-1-carbonyl)-5′-phenyl-tetrahydro-3′H-spiro [piperidine-4,2′-pyrrolo[2,1-b][1,3]-oxazol]-3′-one]
13 | < 25 | CC1CN(c2cccc3ncnn23)CCC12O[C@@H]1CC[C@@H](c3ccccc3)N1C2=O (stereo partly drawn) [Example 4.245, (4R,5′S,7a′R)-3-methyl-5′-phenyl-1-([1,2,4]triazolo[1,5-a]pyridin-5-yl)tetrahydro-3′H-spiro[piperidine-4,2′-pyrrolo[2,1-b] [1,3]oxazol]-3′-one]
14 | 96.8 | N#Cc1cc(F)cc(C(=O)N2CCC3(CC2)O[C@@H]2CC[C@@H](c4cc(F)cc(F)c4)N2C3=O)c1 [Example 5.15, 3-((5′S,7a′R)-5′-(3,5-difluorophenyl)-3′-oxo-tetrahydro-3′H-spiro [piperidine-4,2′-pyrrolo-[2,1-b]oxazole]-1-carbon-yl)-5-fluorobenzonitrile]
15 | 31 | O=C(c1ccon1)N1CCC2(CC1)O[C@@H]1CC[C@@H](c3cc(F)cc(F)c3)N1C2=O [Example 5.45]
16 | < 25 | O=C1N2[C@@H](CC[C@H]2c2cc(F)cc(F)c2)OC12CCN(c1ccnc3c(F)cnn13)CC2 [Example 3.1, (5′S,7a′R)-5′-(3,5-difluorophenyl)-1-(3-fluoropyrazolo[1,5-a]pyrimidin-7-yl)tetrahydro-3′H-spiro[piperidine-4,2′-pyrrolo[2,1-b]oxazol]-3′-one]
17 | < 25 | N#Cc1cc(N2CCC3(CC2)O[C@@H]2CC[C@@H](c4cc(F)cc(F)c4)N2C3=O)ncn1 [Example 4.4, 6-[(5′S,7a′R)-5′-(3,5-difluorophenyl)-3′-oxotetrahydro-1H,3′H-spiro[piperidine-4,2′-pyrrolo[2,1-b] [1,3]oxazol]-1-yl]pyrimidine-4-carbonitrile]
18 | 345 | O=C1N2[C@@H](CC[C@H]2c2ccccc2F)OC12CN(S(=O)(=O)c1ccc(F)cc1)C2 [Example 8.7, (5′S,7a′R)-5′-(2-fluorophenyl)-1-((4-fluorophenyl)sulfonyl) tetrahydro-3′H-spiro[azetidine-3,2′-pyrrolo[2,1-b]oxazol]-3′-one]
19 | 57.3 | O=C1N2[C@@H](CC[C@H]2c2ccccc2)OC12CCN(c1ncnc3c1COC3)CC2 [Example 4.222, (5′S,7a′R)-1-(5,7-dihydrofuro[3,4-d]pyrimidin-4-yl)-5′-phenyltetrahydro-3′H-spiro[piperidine-4,2′-pyrrolo[2,1-b] [1,3]oxazol]-3′-one]
20 | < 25 | O=C(c1c(F)cc(F)cc1F)N1CCC2(CC1)O[C@@H]1CC[C@@H](c3cc(F)cc(F)c3)N1C2=O [Example 5.2, (5′S,7a′R)-5′-(3,5-difluoro-phenyl)-1-(2,4,6-trifluoro-benzene-1-carbonyl)tetra-hydro-3′H-spiro[piperi-dine-4,2′-pyrrolo[2,1-b] [1,3]oxazol]-3′-one]
21 | 89.2 | O=C1N2[C@@H](CC[C@H]2c2cc(F)cc(F)c2)OC12CCN(c1ncc(F)cn1)CC2 [Example 4.67, (5′S,7a′R)-5′-(3,5-difluorophenyl)-1-(5-fluoropyrimidin-2-yl)tetrahydro-3′H-spiro[piperidine-4,2′-pyrrolo[2,1-b] [1,3]oxazol]-3′-one]
22 | < 25 | COc1ccc(N2CCC3(CC2)O[C@@H]2CC[C@@H](c4ccccc4)N2C3=O)nc1OC [Example 11.31, (5′S,7a′R)-1-(5,6-dimethoxypyridin-2-yl)-5′-phenyltetrahydro-3′H-spiro[piperidine-4,2′-pyrrolo[2,1-b][1,3]oxazol]-3′-one]
23 | 444 | O=C(c1cnon1)N1CCC2(CC1)O[C@@H]1CC[C@@H](c3cc(F)cc(F)c3)N1C2=O [Example 5.46, (5′S,7a′R)-5′-(3,5-difluoro-phenyl)-1-(1,2,5-oxazole-3-carbonyl)tetrahydro-3′H-spiro[piperidine-4,2′-pyrrolo-[2,1-b]oxazol]-3′-one]
24 | 30 | O=C(c1ccc(F)cn1)N1CCC2(CC1)O[C@@H]1CC[C@@H](c3cc(F)cc(F)c3)N1C2=O [Example 6.14, (5′S,7a′R)-5′-(3,5-difluorophenyl)-1-(5-fluoropyridine-2-carbonyl)tetrahydro-3′H-spiro[piperidine-4,2′-pyrrolo[2,1-b] [1,3]oxazol]-3′-one]
25 | 366 | O=C1N2[C@@H](CC[C@H]2c2ccccc2)OC12CCN(c1ncccc1C(F)F)CC2 [Example 11.24, (5′S,7a′R)-1-[3-(difluoromethyl)pyridin-2-yl]-5′-phenyltetrahydro-3′H-spiro[piperidine-4,2′-pyrrolo[2,1-b][1,3]oxazol]-3′-one]
26 | 540 | COC(=O)c1cc(C)c(N2CCC3(CC2)O[C@@H]2CC[C@@H](c4ccccc4)N2C3=O)nc1C#N [Example 4.188, methyl 2-cyano-5-methyl-6-[(5′S,7a′R)-3′-oxo-5′-phenyltetrahydro-1H,3′H-spiro[piperidine-4,2′-pyrrolo[2,1-b] [1,3]oxazol]-1-yl]pyridine-3-carboxylate]
